# “And” between values parts separate entries of the source, which are not always exact repeats. Equal entries are not always repeated. Where two headings read alike, the source gives them in different places.
# Columns and labels:
# [1] = tested on: DC-3F/ADX cells; assay: Cytotoxicity toward DC-3F/ADX cells; format: cell-based, hamster
# [2] = tested on: CCRF-CEM/VM-1 cells; assay: Cytotoxicity toward VM-26-resistant CCRF-CEM/VM-1 cells (mutated Topo II gene); format: cell-based, human; details: Homo sapiens, CCRF-CEM, read-out: IC50 of reversing agent
# [3] = tested on: CCRF-CEM cells; assay: Influx of [3H]VP-16 in CCRF-CEM cells; format: cell-based, human; details: Homo sapiens, CCRF-CEM, 0.5 h, read-out: increase of VP-16 accumulation
# [4] = tested on: CCRF-CEM cells; assay: Two drug combination study of vinblastine and 5-N-acetylardeemin on CCRF-CEM, 72 hr, XTT assay; format: cell-based; details: Homo sapiens, Table 2, drug alone, read-out: Dm (median-effect concentration)
# From the text: CCRF-CEM Cell Line at 72-HR Exposure Time. Based on XTT
# [5] = tested on: vinblastine-resistant CCRF-CEM cells (CCRF-CEM/VBL100); assay: Two drug combination study of vinblastine and 5-N-acetylardeemin on vinblastine-resistant CCRF-CEM, 72 hr, XTT assay; format: cell-based, human; details: for dose reduction in combination: 1:2000 ratio, at 98.4% inhibition; for IC50: Homo sapiens, CCRF-CEM, Table 4 (large-scale study), drug alone, read-out: Dm (median-effect concentration)
# From the text: Vinblastine-resistant CCRF-CEM Cell Line at 72-HR Exposure Time.
# Based on XTT Assay. (large-scale study)
# [6] = tested on: P388/DX leukemic cells; assay: Drug combination of adriamycin and 5-N-acetyl-ardeemin against P388/DX cell growth (XTT); format: cell-based; details: drug alone
# From the text: | microplate, 25,000 cell/well, N = 2.
# [7] = tested on: CCRF-CEM cells; assay: Intracellular accumulation of [3H]vinblastine in CCRF-CEM cells; format: cell-based, human; details: 30 μM
# Description: (§1) *Cells were preloaded with [^3 H]
# (§2) times (or without wash) with 100 ml cold medium to remove extracellular
# (§3) with or without a reverse prenyl compound or an MDRreversing agent. Cells
# (§4) were then separated from radioactive medium by microfuge oillayer method.
# (§5) Extracellular space counts carried down # by cells (^3 HInulin space
# (§6) were subtracted from the total radioactive counts.
# [8] = tested on: CCRF-CEM/VLB-100 cells; assay: Intracellular accumulation of [3H]vinblastine in CCRF-CEM/VLB-100 cells; format: cell-based, human; details: 30 μM
# Description: as §1, §2, §3, §4, §5, §6
# [9] = Cytotoxicity (XTT, 72 hr) in HCT116 cells; details: human
# Description: All drug exposures were for 72 hr and cytotoxicity was measured by XTT tetrazolium dye assay.
# [10] = Solubility; format: physicochemical; details: at concentrations higher than […]
# [11] = tested on: DC-3F/ADII cells
# [12] = tested on: DC-3F/ADII cells; assay: cells; details: Mesocricetus auratus, DC3F
# [13] = tested on: CCRF-CEM/VBL100 cells; assay: cells; details: Homo sapiens
# [14] = tested on: vinblastine-resistant CCRF-CEM cells (CCRF-CEM/VBL100); assay: Two drug combination study of vinblastine and 5-N-acetylardeemin on vinblastine-resistant CCRF-CEM, 72 hr, XTT assay; format: cell-based, human; parameters: dose of drug at FA (drug alone): unit not given here; details: for IC50: Homo sapiens, CCRF-CEM, Table 3, drug alone, read-out: Dm (median-effect concentration); for Dose reduction index / dose of drug at FA (drug alone): Table 3
# [15] = tested on: KBV-1 (vinblastine resistant) tumor cell lines; details: in words; cited from earlier work
# [16] = tested on: DC-3F hamster lung cells; assay: Cytotoxicity toward DC-3F hamster lung cells; details: Mesocricetus auratus, DC3F
# [17] = tested on: P388/0; assay: Survival time evaluation for BDF mice bearing P388/0; details: for survival time: individual mice
# From the text: ^a Male BDF mice were inoculated with p388/0, 10E6 cells/mouse, I.P.
# [18] = tested on: P388/DX; assay: Survival time evaluation for BDF mice bearing P388/DX; details: for survival time: individual mice
# [19] = tested on: CCRF/VM-1 cells; assay: Intracellular accumulation of VP-16 in CCRF/VM-1 cells; details: Homo sapiens, 0.5 h, read-out: increase of VP-16 accumulation
# [20] = tested on: CCRF-CEM cells; assay: Cytotoxicity / growth inhibition of CCRF-CEM leukemic cells; details: Homo sapiens
# [21] = tested on: CCRF-CEM cells; assay: Accumulation of VP-16 in CCRF-CEM cells preloaded with [3H]VP-16; details: Homo sapiens, 0.5 h, read-out: increase of intracellular accumulation of VP-16
# [22] = tested on: P388 leukemic cells; assay: Drug combination of adriamycin and 5-N-acetyl-ardeemin against P388 cell growth (XTT); details: Mus musculus, P388, drug alone
# From the text: microplate, 15,000 cell/well, N = 2. Platting cells on day 1, add drugs o
# day 2 and XTT assay on day 5.
# [23] = tested on: P388/O tumor; assay: Combination therapy of adriamycin & 5-N-acetyl-ardeemin or verapamil in B6D2F1 mice bearing P388/O tumor; details: 5NAc-Ardm 70 mg/kg;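 also: male BDF mice carrying P388/O given intraperitoneally, dosing begun on day 1 on a QDX4, QWX2 schedule, five animals per dose level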
# From the text: ^a Male BDF mice were inoculated P388/O, 10^6 cells/mouse, i.p. a
# starting day 1, QDX4, QWX2.
# [24] = tested on: P388/DX tumor; assay: Combination therapy of adriamycin & 5-N-acetyl-ardeemin or verapamil in B6D2F1 mice bearing P388/DX tumor;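 also: male BDF mice implanted intraperitoneally with P388/DX cells, 10^6 per mouse, dosed from day 1 on a QDX4, QWX2 schedule, five mice per dose group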; details: 5NAc-Ard. 70 mg/kg
# From the text: ^a Male BDF mice were inoculated P388/DX, 10^6 cells/mouse, i.p.
# starting day 1, QDX4, QWX2. There were five mice at every dose and ten
# [25] = apparently through calcium antagonism; cited from earlier work
# [26] = molecular target: acyl CoA:cholesterol acyltransferase (ACAT); details: read-out: Ki (with respect to oleoyl-CoA); cited from earlier work
# [27] = tested on: cultured macrophages; details: read-out: IC50, inhibition of cholesterol ester formation; cited from earlier work
# [28] = tested on: CCRF-CEM cells; assay: IC50 of vinblastine in CCRF-CEM with/without MDR reversing agent; format: cell-based; details: Homo sapiens, agent concentration added given in Table 6B, read-out: IC50 of VBL in the presence of reversing agent (A)
# [29] = tested on: CCRF-CEM/VBL cells; assay: IC50 of vinblastine in CCRF-CEM/VBL with/without MDR reversing agent; format: cell-based, human
# [30] = tested on: CCRF-CEM/VBL100 cells; details: human, ccrf-cem/vbl100 vs ccrf-cem
# [31] = tested on: CCRF-CEM/VM-1 cells; details: IC50 of VBL, CCRF-CEM/VM-1 to CCRF-CEM
# [32] = tested on: CCRF-CEM/VM-1 cells; assay: cells; details: Homo sapiens, read-out: IC50 of VBL in the presence of reversing agent (C)
# [33] = tested on: P388/0 tumor; assay: Combination therapy of adriamycin, vinblastine and des-Me-N-acetyl-ardeemin in B6D2F1 mice bearing P388/0 tumor; details: VBL 3.0 mg/kg
# Description: ^a Male BDF mice were inoculated with P388/O, 10^6 cell/mouse,
# i.p. on day 0; and started treatment on day 1, i.p., Q5Dx5, besides mice
# with dose VBL 3.0 and VBL 3.0 mg/kg + DMNAA 50 mg/kg, only one injection
# i.p., on day 1. There were five mice at every dose and ten in the control
# [34] = read-out: IC50 for inhibiting cell growth, Table 7, DC-3F/SDII
# [35] = read-out: IC50 for inhibiting cell growth, Table 7, DC-3F
smiles,measurement,setting,value
C=CC(C)(C)C12CC3c4nc5ccccc5c(=O)n4C(C)C(=O)N3C1N(C(C)=O)c1ccccc12 (stereo not drawn) [5-N-Acetylardeemin],IC50,"[1]; DC3F/ADX, DC-3F/ADX",3.69 µM
same,(C)/(A),"[1]; IC50 ratio DC-3F/ADX to DC-3F, * collaterally sensitive",0.49 X
same,IC50,[2],39.4 µM
same,activation at 30 µM,[3],66%
same,IC50,[4],18.8 µM
same,dose reduction in combination,[5],55 fold
same,IC50,[5],29.8 µM
same,IC50,[6],65.9 µM
same,[3H]vinblastine accumulation,[7]; washed,32.73 fmole/10^3 cells
same,[3H]vinblastine accumulation,[7]; without wash,37.45 fmole/10^3 cells
same,[3H]vinblastine accumulation,[8]; washed,12.78 fmole/10^3 cells
same,[3H]vinblastine accumulation,[8]; without wash,35.44 fmole/10^3 cells
same,MNTC at 72 h,[9],≥ 2200 nM
same,solubility,[10],diminished solubility
same,(B)/(A),"[11]; IC50 ratio DC-3F/ADII to DC-3F, * collaterally sensitive",2.2 X
same,IC50,[11]; [34],1.59 µM
same,IC50,"[12]; read-out: IC50 (B), DC-3F/ADII",16.8 µM
same,IC50,[12]; [34],1.07 µM
same,IC50,"[13]; Table 6, CCRF-CEM/VBL",6.99 µM
same,IC50,"[13]; read-out: IC50 of reversing agent, Table 6B, CCRF-CEM/VBL",18.1 µM
same,IC50,[14],19.4 µM
same,Dose reduction index,[14]; FA .9843,55.57
same,dose of drug at FA (drug alone),[14]; FA .9843,555.6899
same,Dose reduction index,[14]; FA .9861,61.43
same,dose of drug at FA (drug alone),[14]; FA .9861,614.2689
same,Dose reduction index,[14]; FA .9898,79.19
same,dose of drug at FA (drug alone),[14]; FA .9898,791.8969
same,reversal of multidrug resistance,[15],one of the most potent known agents for reversal of multidrug resistance
same,IC50,"[16]; read-out: IC50 (A), mean ± spread, mean of the determinations",7.51 ± 2.58 µM
same,IC50,[16]; [35],3.74 µM
same,IC50,"[16]; relative cytotoxicity, DC-3F",5.06 µM
same,% ILS,[17]; 5N-acetylardeemin 3.33 mg/kg,-2%
same,MST,[17]; 5N-acetylardeemin 3.33 mg/kg,7.25
same,survival time,[17]; 5N-acetylardeemin 3.33 mg/kg,6.0 and 7.0 and 8.0
same,% ILS,[17]; 5N-acetylardeemin 10 mg/kg,-10%
same,MST,[17]; 5N-acetylardeemin 10 mg/kg,6.67
same,survival time,[17]; 5N-acetylardeemin 10 mg/kg,60. and 6.5 and 7.5
same,% ILS,[17]; 5N-acetylardeemin 30 mg/kg,-16%
same,MST,[17]; 5N-acetylardeemin 30 mg/kg,6.25
same,survival time,[17]; 5N-acetylardeemin 30 mg/kg,6.0 and 6.5
same,% ILS,[18]; 5N-acetylardeemin 3.33 mg/kg,5%
same,MST,[18]; 5N-acetylardeemin 3.33 mg/kg,7.63
same,survival time,[18]; 5N-acetylardeemin 3.33 mg/kg,6.5 and 7.0 and 8.0 and 9.0
same,% ILS,[18]; 5N-acetylardeemin 10 mg/kg,2%
same,MST,[18]; 5N-acetylardeemin 10 mg/kg,7.42
same,survival time,[18]; 5N-acetylardeemin 10 mg/kg,7.0 and 7.25 and 8.0
same,% ILS,[18]; 5N-acetylardeemin 30 mg/kg,-7%
same,MST,[18]; 5N-acetylardeemin 30 mg/kg,6.75
same,survival time,[18]; 5N-acetylardeemin 30 mg/kg,6.5 and 7.0
same,fold induction at 30 µM,[19],1.95
same,IC50,"[20]; Table 6, CCRF-CEM",17.2 µM
same,IC50,[20]; human leukemic CCRF-CEM cells,29.8 µM
same,IC50,"[20]; read-out: IC50 of reversing agent, Table 6B, CCRF-CEM",29.2 µM
same,fold induction at 30 µM,[21],3.9
same,IC50,[22],43.7 µM
same,% ILS,[23],+2%
same,MST,[23],7.75 days
same,Days survived,[23]; individual mice 1-5,8.5 days and 7.0 days and 8.25 days and 6.5 days
same,% ILS,[24],0%
same,MST,[24],7.55 days
same,Days survived,[24]; individual mice 1-5,6.5 days and 7.25 days and 8.0 days
"C=CC(C)(C)[C@@]12C[C@H]3C(=O)N4[C@@H](C[C@@]5(C(C)(C)C=C)c6ccccc6N[C@@H]45)C(=O)N3[C@@H]1Nc1ccccc12 [Amauromine, amauromine]",vasodilator activity,[25],vasodilator
C=CC(C)(C)C12Nc3ccccc3C1(O)CC1C(=O)N3C(CC4(O)c5ccccc5NC34C(C)(C)C=C)C(=O)N12 (stereo not drawn) [Gypsetin],IC50,[12]; read-out: IC50 for inhibiting cell growth,2.25 µM
same,Ki,[26],5.5 µM
same,IC50,[27],0.65 µM
same,IC50,[16]; [35],3.78 µM
CC[C@]1(O)C[C@@H]2CN(CCc3c([nH]c4ccccc34)[C@@](C(=O)OC)(c3cc4c(cc3OC)N(C)[C@H]3[C@@](O)(C(=O)OC)[C@H](OC(C)=O)[C@]5(CC)C=CCN6CC[C@]43[C@@H]65)C2)C1 [Vinblastine],IC50,[4],0.00168 µM
same,dose reduction in combination,[5],41 fold
same,IC50,[5],0.393 µM
same,IC50,[28],0.00083 µM
same,IC50,"[29]; Homo sapiens, CCRF-CEM, agent concentration added given in Table 6B, read-out: IC50 of VBL in the presence of reversing agent (B)",0.832 µM
same,(b)/(a),"[29]; IC50 of VBL, CCRF-CEM/VBL to CCRF-CEM",761
same,resistance of CCRF-CEM/VBL100 compared with CCRF-CEM,[30],220 fold
same,(C)/(A),[31],0.54
same,IC50,[14],0.371 µM
same,Dose reduction index,[14]; FA .9843,41.85
same,dose of drug at FA (drug alone),[14]; FA .9843,2.092
same,Dose reduction index,[14]; FA .9861,22.03
same,dose of drug at FA (drug alone),[14]; FA .9861,2.203
same,Dose reduction index,[14]; FA .9898,10.05
same,dose of drug at FA (drug alone),[14]; FA .9898,2.512
same,IC50,[32],0.00045 µM
same,IC50,[20]; wild type CCRF-CEM,0.0017 µM
same,% ILS,[33]; one injection,+64%
same,Days survived,"[33]; one injection, individual mice 1-5, listed as VBL",5.0 days and 6.0 days and 9.5 days and 15.5 days and 16.0 days
same,MST,"[33]; one injection, toxic deaths excluded",13.67 days
same,deaths of toxicity,[33]; day 5 and 6,Two mice died of toxicity of drug

# Reference: US6147076A, “Analogues of N-acetylardeemin, method of preparation and uses thereof” (priority 1996, dated 2000)
